The results in this text go back to ChEMBL document CHEMBL5113381, “Large-Scale Screening of Antifungal Peptides Based on Quantitative Structure-Activity Relationship” (2022).

The structures appear in SMILES notation. In brackets after ≈: the same amount, converted by molar mass. Peptide text beside a SMILES is read from it. A value given as a limit tells only on which side of the number the result lay.

Assay type in all cases: functional
Assay [1] has as its system Cryptococcus neoformans. Kind of assay: Antifungal activity against Cryptococcus neoformans H99 measured after 24 to 48 hrs by CLSI method. The settings on record: time 24-48 hrs.
Assay [2] has as its system Pichia kudriavzevii. Kind of assay: Antifungal activity against Candida krusei IFM56881 measured after 24 to 48 hrs by CLSI method. The settings on record: time 24-48 hrs.
Assay [3] relates to Candida albicans. Kind of assay: Antifungal activity against Candida albicans SC5314 measured after 24 to 48 hrs by CLSI method. The settings on record: time 24-48 hrs.
Assay [4] relates to Candida parapsilosis. The assay can be described thus: Antifungal activity against Candida parapsilosis ATCC 22019 measured after 24 to 48 hrs by CLSI method. The settings on record: Lodderomyces parapsilosis, time 24-48 hrs.

For the compound `CSCC[C@H](NC(=O)[C@H](CCCNC(=N)N)NC(=O)[C@H](CCCCN)NC(=O)[C@H](CCCCN)NC(=O)[C@H](CCCCN)NC(=O)[C@H](Cc1c[nH]c2ccccc12)NC(=O)[C@H](CCCCN)NC(=O)[C@@H]1CCCN1C(=O)[C@H](CCCNC(=N)N)NC(=O)[C@@H](N)CCSC)C(=O)N[C@@H](CCCNC(=N)N)C(=O)N[C@@H](CCCNC(=N)N)C(=O)N[C@@H](CC(C)C)C(=O)N[C@@H](CCCCN)C(=O)N[C@@H](CCCNC(=N)N)C(=O)N[C@@H](CCCCN)C(=O)N[C@@H](CCCNC(=N)N)C(=O)N[C@@H](CCCCN)C(=O)N[C@@H](CCC(N)=O)C(=O)N[C@@H](CCCNC(=N)N)C(=O)N[C@@H](CCCNC(=N)N)C(=O)N[C@@H](C)C(=O)N[C@@H](CCCNC(=N)N)C(=O)N[C@@H](Cc1ccc(O)cc1)C(=O)N[C@@H](CCCCN)C(=O)O`, the minimal inhibitory concentration (MIC) in assay [1] is 2.31 µM (≈ 8.02 µg/mL); in assay [2], over 73.8 µM; in assay [3], over 73.8 µM; in assay [4], 18.4 µM (≈ 64 µg/mL).
Take `CC[C@H](C)[C@H](NC(=O)CNC(=O)[C@H](CCCNC(=N)N)NC(=O)[C@H](Cc1ccc(O)cc1)NC(=O)[C@H](CS)NC(=O)[C@@H](NC(=O)[C@H](CCCNC(=N)N)NC(=O)[C@H](Cc1ccccc1)NC(=O)[C@H](CS)NC(=O)[C@H](Cc1c[nH]c2ccccc12)NC(=O)[C@@H](N)CCCCN)C(C)C)C(=O)N[C@@H](CS)C(=O)N[C@@H](Cc1ccc(O)cc1)C(=O)N[C@@H](CCCNC(=N)N)C(=O)N[C@@H](CCCCN)C(=O)N[C@@H](CS)C(=O)N[C@@H](CCCNC(=N)N)C(=O)O` (H-KWCFRVCYRGICYRKCR-OH): the MIC in assay [1] is 1.79 µM (≈ 4.01 µg/mL); in assay [2], 28.6 µM (≈ 64 µg/mL); in assay [3], 14.3 µM (≈ 32 µg/mL); in assay [4], 7.14 µM (≈ 16 µg/mL).
The matching figures for `CC[C@H](C)[C@H](NC(=O)CNC(=O)[C@H](CCCNC(=N)N)NC(=O)[C@H](Cc1ccc(O)cc1)NC(=O)[C@H](CS)NC(=O)[C@@H](NC(=O)[C@H](CCCNC(=N)N)NC(=O)[C@H](Cc1ccccc1)NC(=O)[C@H](CS)NC(=O)[C@H](Cc1c[nH]c2ccccc12)NC(=O)[C@@H](N)CCCCN)C(C)C)C(=O)N[C@@H](CS)C(=O)N[C@@H](Cc1ccc(O)cc1)C(=O)N[C@@H](CCCNC(=N)N)C(=O)N[C@@H](CCCNC(=N)N)C(=O)N[C@@H](CS)C(=O)N[C@@H](CCCNC(=N)N)C(=O)O` (H-KWCFRVCYRGICYRRCR-OH): 3.53 µM (≈ 8.01 µg/mL), 28.2 µM (≈ 64 µg/mL), 14.1 µM (≈ 32 µg/mL) and 7.05 µM (≈ 16 µg/mL).
On to `CSCC[C@H](N)C(=O)N[C@@H](C)C(=O)N[C@H](C(=O)N[C@@H](CCCCN)C(=O)N[C@@H](CCCCN)C(=O)N[C@@H](CCCCN)C(=O)N[C@H](C(=O)N[C@H](C(=O)N[C@@H](CCCCN)C(=O)N[C@@H](CCCCN)C(=O)N[C@@H](C)C(=O)N[C@H](C(=O)N[C@@H](CCCCN)C(=O)N[C@@H](CCCCN)C(=O)N[C@H](C(=O)N[C@@H](C)C(=O)N[C@@H](CCCCN)C(=O)N[C@@H](CCCCN)C(=O)N[C@@H](C)C(=O)N1CCC[C@H]1C(=O)N[C@@H](CCCCN)C(=O)N[C@@H](CCCCN)C(=O)N[C@@H](C)C(=O)N[C@H](C(=O)N[C@@H](CCCCN)C(=O)N[C@@H](CCCCN)C(=O)N[C@H](C(=O)N[C@@H](C)C(=O)N[C@@H](CCCCN)C(=O)N[C@@H](CCCCN)C(=O)N[C@@H](CCCCN)C(=O)O)C(C)C)C(C)C)C(C)C)C(C)C)C(C)C)C(C)C)[C@@H](C)O` (H-MATKKKVVKKAVKKVAKKAPKKAVKKVAKKK-OH), for which the MIC in assay [1] was 37.4 µM (≈ 128 µg/mL); in assay [2], over 74.9 µM; in assay [3] it was over 74.9 µM; in assay [4], over 74.9 µM.
Turning to `CC[C@H](C)[C@H](NC(=O)CNC(=O)[C@H](C)NC(=O)[C@H](CC(C)C)NC(=O)[C@H](C)NC(=O)[C@H](Cc1c[nH]c2ccccc12)NC(=O)[C@H](CC(C)C)NC(=O)[C@H](CCCCN)NC(=O)[C@H](CCCCN)NC(=O)[C@H](Cc1ccc(O)cc1)NC(=O)[C@H](CCCCN)NC(=O)[C@@H](N)CCSC)C(=O)N[C@@H](C)C(=O)N[C@@H](CC(C)C)C(=O)N[C@@H](CO)C(=O)N[C@@H](CS)C(=O)N[C@@H](CC(N)=O)C(=O)N[C@@H](CC(C)C)C(=O)N[C@@H](CC(C)C)C(=O)N[C@@H](CC(C)C)C(=O)N[C@H](C(=O)N[C@@H](C)C(=O)O)[C@@H](C)O` (H-MKYKKLWALAGIALSCNLLLTA-OH), the MIC in assay [1], in assay [2], in assay [3] and in assay [4] was over 106 µM in each case.
Regarding `CC[C@H](C)[C@H](NC(=O)[C@@H](NC(=O)[C@H](Cc1ccccc1)NC(=O)[C@H](CS)NC(=O)[C@@H](NC(=O)[C@H](CC(C)C)NC(=O)[C@H](Cc1ccccc1)NC(=O)[C@@H](NC(=O)[C@H](Cc1ccccc1)NC(=O)CNC(=O)[C@H](Cc1ccccc1)NC(=O)[C@H](CCCCN)NC(=O)[C@H](CCCCN)NC(=O)[C@H](CCCCN)NC(=O)[C@H](CC(C)C)NC(=O)[C@@H](N)CCSC)C(C)C)C(C)C)C(C)C)C(=O)N[C@@H](Cc1ccccc1)C(=O)N[C@@H](Cc1cnc[nH]1)C(=O)N[C@@H](CO)C(=O)N[C@@H](CS)C(=O)N[C@@H](CCCCN)C(=O)O` (H-MLKKKFGFVFLVCFVIFHSCK-OH), the MIC in assay [1], in assay [2], in assay [3] and in assay [4] was over 102 µM in each case.
For `CC[C@H](C)[C@H](NC(=O)[C@H](CCCCN)NC(=O)[C@H](CO)NC(=O)[C@H](Cc1ccccc1)NC(=O)[C@@H](NC(=O)[C@@H](NC(=O)[C@H](CCCNC(=N)N)NC(=O)[C@H](Cc1ccccc1)NC(=O)[C@@H](NC(=O)[C@H](CCCCN)NC(=O)[C@H](CC(N)=O)NC(=O)[C@@H](N)CCSC)[C@@H](C)CC)C(C)C)[C@@H](C)CC)C(=O)N[C@@H](CC(C)C)C(=O)NCC(=O)N[C@@H](CCCNC(=N)N)C(=O)N[C@@H](CC(C)C)C(=O)N[C@H](C(=O)N[C@H](C(=O)N[C@H](C(=O)O)[C@@H](C)O)C(C)C)[C@@H](C)CC` (H-MNKIFRVIFSKILGRLIVT-OH), the MIC in assay [1] turned out to be 7.12 µM (≈ 16 µg/mL); in assay [2], 56.9 µM (≈ 128 µg/mL); in assay [3] it was 14.2 µM (≈ 32 µg/mL); in assay [4], 14.2 µM (≈ 32 µg/mL).
For the compound `CC[C@H](C)[C@H](NC(=O)[C@H](CCC(N)=O)NC(=O)[C@H](CCCCN)NC(=O)[C@H](CCCCN)NC(=O)[C@H](Cc1c[nH]c2ccccc12)NC(=O)[C@@H]1CCCN1C(=O)[C@@H](NC(=O)[C@H](CC(C)C)NC(=O)[C@H](CCCNC(=N)N)NC(=O)[C@H](CC(C)C)NC(=O)[C@@H](NC(=O)[C@H](CC(C)C)NC(=O)[C@@H]1CCCN1C(=O)[C@H](CCCCN)NC(=O)[C@H](Cc1cnc[nH]1)NC(=O)[C@H](CS)NC(=O)[C@H](CCCCN)NC(=O)[C@H](CCCNC(=N)N)NC(=O)[C@H](CC(C)C)NC(=O)[C@H](CCCNC(=N)N)NC(=O)[C@@H](N)CCSC)[C@@H](C)O)C(C)C)C(=O)N[C@@H](CCSC)C(=O)O` (H-MRLRKCHKPLTLRLVPWKKQIM-OH), the MIC in assay [1] is 92.2 µM (≈ 256 µg/mL); in assay [2], over 92.2 µM; in assay [3] it was over 92.2 µM; in assay [4] it was over 92.2 µM.
As for `CC[C@H](C)[C@H](NC(=O)[C@H](CCCCN)NC(=O)[C@@H](NC(=O)[C@@H](N)CCSC)[C@@H](C)O)C(=O)N[C@@H](CC(C)C)C(=O)N[C@@H](CC(C)C)C(=O)N[C@H](C(=O)N[C@H](C(=O)N[C@@H](CCCCN)C(=O)N[C@@H](CCCNC(=N)N)C(=O)N[C@@H](CC(C)C)C(=O)N[C@@H](CCCNC(=N)N)C(=O)N[C@H](C(=O)N[C@H](C(=O)N[C@@H](Cc1ccc(O)cc1)C(=O)N[C@H](C(=O)N[C@@H](CCCCN)C(=O)N[C@@H](CCCNC(=N)N)C(=O)N[C@@H](CS)C(=O)N[C@@H](CC(C)C)C(=O)N[C@@H](CS)C(=O)N[C@@H](Cc1ccccc1)C(=O)N[C@@H](CCCNC(=N)N)C(=O)N[C@@H](C)C(=O)O)[C@@H](C)O)C(C)C)[C@@H](C)O)C(C)C)[C@@H](C)CC` (H-MTKILLIVKRLRTVYTKRCLCFRA-OH), the minimum inhibitory concentration (MIC) in assay [1] was 5.47 µM (≈ 16 µg/mL); in assay [2] it was 21.9 µM (≈ 64 µg/mL); in assay [3], 43.8 µM (≈ 128 µg/mL); in assay [4], 43.8 µM (≈ 128 µg/mL).
Turning to `CC[C@H](C)[C@H](NC(=O)[C@H](C)NC(=O)[C@H](CCCCN)NC(=O)[C@H](CCCNC(=N)N)NC(=O)[C@@H](NC(=O)[C@H](CCCNC(=N)N)NC(=O)[C@H](CCCNC(=N)N)NC(=O)CNC(=O)[C@H](Cc1ccc(O)cc1)NC(=O)[C@H](CCCNC(=N)N)NC(=O)[C@H](C)NC(=O)CNC(=O)[C@H](Cc1ccccc1)NC(=O)[C@H](CCCNC(=N)N)NC(=O)CNC(=O)[C@H](C)NC(=O)[C@H](CO)NC(=O)[C@H](CCCCN)NC(=O)[C@@H](NC(=O)[C@H](CCCCN)NC(=O)[C@@H](NC(=O)CNC(=O)[C@H](CCCCN)NC(=O)[C@H](CCCCN)NC(=O)[C@H](CCCNC(=N)N)NC(=O)[C@H](CCCCN)NC(=O)[C@H](CCC(N)=O)NC(=O)[C@H](CCCCN)NC(=O)[C@H](CCCCN)NC(=O)[C@@H](NC(=O)[C@@H](N)CCSC)[C@@H](C)O)[C@@H](C)CC)[C@@H](C)O)[C@@H](C)CC)C(=O)O` (H-MTKKQKRKKGIKTKSAGRFGARYGRRIRKAI-OH), the MIC in assay [1] is 8.84 µM (≈ 32 µg/mL); in assay [2], over 70.7 µM; in assay [3] it was over 70.7 µM; in assay [4], 4.42 µM (≈ 16 µg/mL).
As to `CC[C@H](C)[C@H](NC(=O)[C@H](CCCCN)NC(=O)[C@H](CC(C)C)NC(=O)[C@H](Cc1ccccc1)NC(=O)[C@H](CC(C)C)NC(=O)[C@H](Cc1ccccc1)NC(=O)[C@@H](NC(=O)[C@H](CO)NC(=O)[C@H](CO)NC(=O)[C@@H](NC(=O)[C@H](Cc1ccccc1)NC(=O)[C@@H](NC(=O)[C@H](CO)NC(=O)[C@H](Cc1ccc(O)cc1)NC(=O)[C@@H](N)CCSC)C(C)C)[C@@H](C)CC)[C@@H](C)CC)C(=O)N[C@@H](CCCNC(=N)N)C(=O)N[C@@H](Cc1ccccc1)C(=O)N[C@@H](CCCCN)C(=O)N[C@@H](CC(C)C)C(=O)N[C@@H](Cc1ccc(O)cc1)C(=O)N1CCC[C@H]1C(=O)N[C@@H](CCCNC(=N)N)C(=O)O` (H-MYSVFISSIFLFLKIRFKLYPR-OH), the MIC in assay [1], in assay [2], in assay [3] and in assay [4] was over 92.4 µM throughout.
